We go through 43 compounds from ChEMBL document CHEMBL1145583, “2,5-Diaminopyrimidines and 3,5-disubstituted azapurines as inhibitors of glycogen synthase kinase-3 (GSK-3)” (Bioorg Med Chem Lett, 2008).

Structures are written as SMILES.

Data set [1] concerns the target T1, Aurora kinase A (Homo sapiens) (UniProt O14965).
T1 sequence (whole entry): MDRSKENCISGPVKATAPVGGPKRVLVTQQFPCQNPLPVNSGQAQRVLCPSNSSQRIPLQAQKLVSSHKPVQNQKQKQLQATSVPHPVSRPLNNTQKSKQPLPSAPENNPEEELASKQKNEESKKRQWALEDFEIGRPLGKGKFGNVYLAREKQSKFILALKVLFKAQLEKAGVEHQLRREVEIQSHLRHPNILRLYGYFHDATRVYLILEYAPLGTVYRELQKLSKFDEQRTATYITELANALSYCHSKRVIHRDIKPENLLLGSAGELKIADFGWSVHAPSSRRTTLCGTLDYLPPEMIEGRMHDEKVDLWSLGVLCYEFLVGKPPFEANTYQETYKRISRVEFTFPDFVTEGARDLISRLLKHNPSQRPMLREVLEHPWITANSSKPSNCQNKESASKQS
Nature of the data set: Inhibition of Aurora A at 10 uM.

In data set [2] the target is T2, Glycogen synthase kinase-3 beta (Homo sapiens, UniProt P49841). Nature of the data set: Inhibition of GSK3-beta.
Target sequence in this assay (P49841 whole entry): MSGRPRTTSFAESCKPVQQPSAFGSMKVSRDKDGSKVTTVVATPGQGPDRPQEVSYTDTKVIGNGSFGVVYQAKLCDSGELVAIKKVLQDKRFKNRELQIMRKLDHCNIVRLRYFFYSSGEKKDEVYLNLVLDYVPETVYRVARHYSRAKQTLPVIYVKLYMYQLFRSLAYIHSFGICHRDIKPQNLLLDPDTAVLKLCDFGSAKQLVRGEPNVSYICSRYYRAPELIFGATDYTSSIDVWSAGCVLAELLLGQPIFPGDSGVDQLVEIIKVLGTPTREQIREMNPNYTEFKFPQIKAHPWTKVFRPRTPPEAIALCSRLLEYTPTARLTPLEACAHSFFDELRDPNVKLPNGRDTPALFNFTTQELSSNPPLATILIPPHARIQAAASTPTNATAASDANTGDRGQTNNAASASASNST
Data set [3] deals with T3, Glycogen synthase kinase-3 alpha (Homo sapiens, UniProt P49840). Nature of the data set: Inhibition of GSK3alpha.
Target sequence in this assay (P49840 whole entry): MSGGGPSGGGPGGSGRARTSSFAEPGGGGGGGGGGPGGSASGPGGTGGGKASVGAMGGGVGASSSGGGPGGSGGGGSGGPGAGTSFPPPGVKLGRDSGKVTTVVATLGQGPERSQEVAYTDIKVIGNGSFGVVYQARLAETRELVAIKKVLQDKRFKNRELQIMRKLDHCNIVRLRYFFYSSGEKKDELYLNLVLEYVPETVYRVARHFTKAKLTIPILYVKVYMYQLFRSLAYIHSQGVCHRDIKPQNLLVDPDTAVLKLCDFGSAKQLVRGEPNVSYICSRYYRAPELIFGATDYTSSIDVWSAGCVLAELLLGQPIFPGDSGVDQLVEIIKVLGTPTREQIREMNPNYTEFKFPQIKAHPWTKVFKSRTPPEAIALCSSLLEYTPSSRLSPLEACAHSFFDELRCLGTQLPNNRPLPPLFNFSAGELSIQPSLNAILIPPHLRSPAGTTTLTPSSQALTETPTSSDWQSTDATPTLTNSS
A further data set has as its target T4, Aurora kinase A (Homo sapiens, UniProt O14965).
T4 sequence (O14965 whole entry): T1 sequence (whole entry)
In words: Inhibition of Aurora A.

In data set [4] the target is T3, Glycogen synthase kinase-3 alpha. In words: Inhibition of GSK3-alpha at 10 uM.
Target sequence in this assay (P49840 2-483 limits assumed): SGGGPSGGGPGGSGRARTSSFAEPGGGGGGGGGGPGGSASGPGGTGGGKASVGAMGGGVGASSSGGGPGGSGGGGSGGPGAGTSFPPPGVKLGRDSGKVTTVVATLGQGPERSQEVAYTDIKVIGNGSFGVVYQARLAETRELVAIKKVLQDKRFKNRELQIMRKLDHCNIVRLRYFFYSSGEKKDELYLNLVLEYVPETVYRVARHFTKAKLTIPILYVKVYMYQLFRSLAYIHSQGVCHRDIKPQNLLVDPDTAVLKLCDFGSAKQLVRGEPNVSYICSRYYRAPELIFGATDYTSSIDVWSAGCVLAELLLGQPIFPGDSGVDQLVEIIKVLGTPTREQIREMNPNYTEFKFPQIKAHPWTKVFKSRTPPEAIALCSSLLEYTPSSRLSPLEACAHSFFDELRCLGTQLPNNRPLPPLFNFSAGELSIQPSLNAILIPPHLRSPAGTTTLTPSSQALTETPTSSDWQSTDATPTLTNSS
In data set [5] the target is T2, Glycogen synthase kinase-3 beta. Nature of the data set: Inhibition of GSK3-beta at 10 uM.
Target sequence in this assay (P49841 whole entry, looked up): as the sequence (P49841 whole entry) above
The nature of data set [6]: AUC in rat at 20 mg/kg, po. Type of data set: ADME, organism-based. Also noted: dose 20 mg/kg, route oral. Conditions: plasma.
A short description of data set [7]: Cmax in rat at 20 mg/kg, po. Type of data set: ADME, organism-based. Also on record: dose 20 mg/kg, route oral. Conditions: in vivo.
Data set [8] can be described thus: Half life in rat at 20 mg/kg, po. Type of data set: ADME, organism-based. Also noted: dose 20 mg/kg, route oral. Conditions: in vivo.
Data set [9] is described as follows: Half life in rat at 5 mg/kg, iv. Type of data set: ADME, organism-based. Also noted: dose 5 mg/kg, route intravenous. The conditions noted are these: in vivo.
The nature of data set [10]: Tmax in rat at 20 mg/kg, po. Type of data set: ADME, organism-based. Also noted: dose 20 mg/kg, route oral. The conditions noted are these: in vivo.
Data set [11] is described as follows: Clearance in rat at 5 mg/kg, iv. The conditions noted are these: in vivo. Also noted: dose 5 mg/kg, route intravenous. Type of data set: ADME, organism-based.
Data set [12] is described as follows: Oral bioavailability in rat at 20 mg/kg. The conditions noted are these: in vivo. Type of data set: ADME, organism-based.
Data set [13] can be described thus: Volume of distribution at steady state in rat at 5 mg/kg, iv. Type of data set: ADME, organism-based. Also noted: dose 5 mg/kg, route intravenous. Conditions: in vivo, read-out: Vdss.
A short description of data set [14]: AUC in rat at 5 mg/kg, iv. Type of data set: ADME, organism-based. Conditions: plasma. Also noted: dose 5 mg/kg, route intravenous.
Data set [15] can be described thus: Cmax in rat at 5 mg/kg, iv. Type of data set: ADME, organism-based. Also on record: dose 5 mg/kg, route intravenous. Conditions: in vivo.

For orientation: inhibition means the relative decrease from the control value, in per cent. By IC50 is commonly meant the concentration needed to halve the response being measured. For the compound `O=[N+]([O-])c1cnc(N[C@H]2CC[C@H](O)CC2)nc1NC12CC3CC(CC(O)(C3)C1)C2`, in data set [1], the inhibition stood at 33%. Moreover, the IC50 in data set [2] was 198 nM; in data set [3], 123 nM.
The like results for `O[C@H]1CC[C@H](Nc2ncc3nnn(-c4ccccc4)c3n2)CC1` were, in that order, 25%, 279 nM and 123 nM.
On to `COC(=O)COc1ccc(Nc2ncc3nnn(-c4ccccc4)c3n2)cc1`, for which the IC50 in data set [2] worked out at 477 nM; in data set [3] it was 204 nM.
Turning to `O=C(O)c1ccc(Nc2ncc3nnn(C45CC6CC(CC(O)(C6)C4)C5)c3n2)cc1`, the IC50 in data set [2] amounted to 51 nM; in [3], 66 nM.
`O=C(O)c1ccc(Nc2ncc([N+](=O)[O-])c(NC34CC5CC(CC(O)(C5)C3)C4)n2)cc1`: the half-maximal inhibitory concentration (IC50) was determined as 156 nM at Aurora kinase A, 3 nM in data set [2] and 4.5 nM in data set [3].
Turning to `Cn1c(=O)n(-c2ccccc2)c2nc(Nc3ccccc3)ncc21`, the inhibition in [4] was found to be 94%; in [5], 96%. The compound further had an IC50 in data set [2] of 1700 nM.
Turning to `O=C(O)c1ccc(Nc2ncc3nnn(C45CC6CC(CC(C6)C4)C5)c3n2)cc1`, the IC50 was determined as 910 nM at Aurora kinase A, 75 nM in data set [2] and 80 nM in data set [3].
With `CCCCOC(=O)c1ccc(Nc2ncc3[nH]c(=O)n(-c4ccccc4)c3n2)cc1`, the values for the inhibition in data set [4] and in data set [5] were 6% and -5%, respectively.
Turning to `OC12CC3CC(C1)CC(Nc1nc(N[C@H]4CC[C@H](O)CC4)ncc1Cl)(C3)C2`, the inhibition in [1] is 65%. Further, the IC50 in data set [2] worked out at 230 nM; in data set [3] it was 133 nM.
On to `CC(C)n1c(=O)n(-c2ccccc2)c2nc(Nc3ccccc3)ncc21`, for which the inhibition in data set [5] is 71%. In data set [2], this compound yielded an IC50 of 2900 nM.
For the compound `O=C(O)c1ccc(Nc2ncc3nnn(-c4ccccc4)c3n2)cc1`, the IC50 at Aurora kinase A was 292 nM; in data set [2], 49 nM; in data set [3], 32 nM.
`OC12CC3CC(C1)CC(n1nnc4cnc(N[C@H]5CC[C@H](O)CC5)nc41)(C3)C2`: in data set [1], the inhibition turned out to be 23%. Further, the results for the IC50 in data set [2] and in data set [3] were 744 nM and 444 nM, respectively.
Take `O=c1[nH]c2cnc(Nc3ccccc3)nc2n1-c1ccccc1`: the inhibition is -7% in data set [4] and 20% in data set [5].
For the compound `O=C(O)COc1ccc(Nc2ncc3nnn(C45CC6CC(CC(O)(C6)C4)C5)c3n2)cc1`, the IC50 was found to be 169 nM in [2] and 96 nM in data set [3].
Take `O=C1OC(Nc2ncc3nnn(-c4ccccc4)c3n2)c2ccccc21` (stereo not drawn): the IC50 at Aurora kinase A was found to be 7300 nM; in [2], 23 nM; in data set [3] it was 23 nM.
Broadly, the AUC is concentration integrated over time. The low end stands for less exposure, the high end for more exposure. As usually defined, the Cmax is the peak of the concentration-time curve. Broadly, the half-life is the time needed for the level to fall by half in the phase considered. In general, Tmax refers to the time from dosing to the highest level. A word on the clearance: it is the volume of plasma or blood freed of the substance per unit of time. High values mean efficient removal, low ones inefficient removal. Broadly, the bioavailability is the share of a dose that reaches the circulation, judged against a reference dose that is usually intravenous. A lower bioavailability goes with poor availability. Turning to `OC12CC3CC(C1)CC(Nc1nc(N[C@H]4CC[C@H](O)CC4)ncc1C(F)(F)F)(C3)C2`, in [1], the inhibition amounted to 45%. Also, the values for the AUC in [6] and in data set [14] were 27400 ng·h/mL and 20100 ng·h/mL, respectively. Further, the peak concentration (Cmax) in [7] came to 5700 ng/mL; in data set [15] it was 24200 ng/mL. The values for the half-life in data set [8] and in [9] were 6.1 h and 3.7 h, respectively. The Tmax in data set [10] turned out to be 0.5 h. The same compound yielded a clearance in data set [11] of 4.2 mL/min/kg. In [12], this compound showed a bioavailability of 34%. For the same compound, in data set [13], the Vd worked out at 0.3 L/kg. Moreover, the IC50 was 41 nM in [2] and 61 nM in data set [3].
For the compound `O=C(O)c1ccc(Nc2ncc([N+](=O)[O-])c(Nc3ccccc3)n2)cc1`, the IC50 on Aurora kinase A worked out at 346 nM; in [2] it was 150 nM; in data set [3], 270 nM.
`CCn1c(=O)n(-c2ccccc2)c2nc(Nc3ccccc3)ncc21`: the inhibition in data set [4] was found to be 73%; in data set [5], 78%. In addition, the concentration for half-maximal inhibition (IC50) in data set [2] was more than 10000 nM.
On to `O=[N+]([O-])c1cnc(N[C@H]2CC[C@H](O)CC2)nc1Nc1ccccc1`, for which the results for the IC50 in [2] and in data set [3] were 281 nM and 172 nM, respectively.
The corresponding values for `O=C(O)c1ccc(Nc2ncc(C3C=NN=N3)c(Nc3ccccc3)n2)cc1` (stereo not drawn) are 1170 nM and 2850 nM.
Regarding `O=C(O)COc1ccc(Nc2ncc3nnn(-c4ccccc4)c3n2)cc1`, the IC50 turned out to be 128 nM on Aurora kinase A, 13 nM in [2] and 9 nM in data set [3].
With `O=[N+]([O-])c1cnc(Nc2ccccc2)nc1Nc1ccccc1`, in data set [4], the inhibition is 52%. It took 2800 nM to reach half-maximal inhibition in data set [2] (IC50).
`CC(C)(C)n1c(=O)n(-c2ccccc2)c2nc(Nc3ccccc3)ncc21`: the inhibition in data set [4] was determined as 88%; in data set [5] it was 93%. In data set [2], it took 2400 nM to reach half-maximal inhibition (IC50).
As to `O=C(O)COc1ccc(Nc2ncc([N+](=O)[O-])c(Nc3ccccc3)n2)cc1`, the IC50 against Aurora kinase A amounted to 85 nM; in [2], 92 nM; in data set [3], 74 nM.
In the case of `COC(=O)COc1ccc(Nc2ncc([N+](=O)[O-])c(Nc3ccccc3)n2)cc1`, the inhibition in data set [5] is 41%.
As for `O=C(O)/C=C\c1ccc(Nc2ncc3nnn(-c4ccccc4)c3n2)cc1`, the IC50 came to 112 nM against Aurora kinase A, 7 nM in data set [2] and 13 nM in data set [3].
Turning to `Cn1c(=O)c2cnc(Nc3ccc(C(=O)O)cc3)nc2n1-c1ccccc1`, the half-maximal inhibitory concentration (IC50) amounted to 960 nM in [2] and 1020 nM in data set [3].
The corresponding values for `O=C(O)c1ccc(Nc2ncc(F)c(Nc3ccccc3)n2)cc1` are 4170 nM and 3760 nM.
For the compound `O=C(O)c1ccc(Nc2ncc3[nH]c(=O)n(-c4ccccc4)c3n2)cc1`, the results for the inhibition in data set [4] and in data set [5] were 93% and 88%, respectively. For the same compound, in data set [2], the IC50 amounted to 4000 nM.
For the compound `O=C(O)c1cccc(Nc2ncc3[nH]c(=O)n(-c4ccccc4)c3n2)c1`, the values for the inhibition in data set [4] and in data set [5] were 1% and 3%, respectively.
`c1ccc(Nc2ncc3nnn(-c4ccccc4)c3n2)cc1`: the figures for the IC50 in data set [2] and in [3] were 628 nM and 330 nM, respectively.
The corresponding values for `O=C(O)c1ccc(Nc2ncc([N+](=O)[O-])c(NC34CC5CC(CC(C5)C3)C4)n2)cc1` are 26 nM and 34 nM.
As to `O=C(O)c1ccc(Nc2ncc(C(F)(F)F)c(Nc3ccccc3)n2)cc1`, the IC50 amounted to 490 nM in data set [2] and 750 nM in data set [3].
In the case of `O=C1CN(c2ccccc2)c2nc(Nc3ccc(C(=O)O)cc3)ncc2N1`, the IC50 in data set [2] was determined as 3500 nM; in [3], 6700 nM.
`O=c1n(-c2ccccc2)c2nc(Nc3ccccc3)ncc2n1C1CCCCC1`: the results for the inhibition in [4] and in data set [5] were 16% and 14%, respectively.
Turning to `O=C(O)CCc1ccc(Nc2ncc3nnn(-c4ccccc4)c3n2)cc1`, the IC50 was 375 nM against Aurora kinase A, 24 nM in [2] and 20 nM in data set [3].
In the case of `OC12CC3CC(C1)CC(Nc1nc(N[C@H]4CC[C@H](O)CC4)ncc1Br)(C3)C2`, in [1], the inhibition worked out at 69%. Further, the values for the IC50 in data set [2] and in [3] were 125 nM and 91 nM, respectively.
As for `O=C(O)c1ccc(Nc2ncc(Br)c(Nc3ccccc3)n2)cc1`, the inhibition in [4] was 82%. In data set [2], this compound displayed an IC50 of 3200 nM.
The compound `OC12CC3CC(C1)CC(Nc1nc(N[C@H]4CC[C@H](O)CC4)ncc1F)(C3)C2` returned an IC50 in data set [3] of 1500 nM.
`O=C(O)CCc1ccc(Nc2ncc([N+](=O)[O-])c(NC34CC5CC(CC(C5)C3)C4)n2)cc1`: the IC50 came to 105 nM in data set [2] and 38 nM in data set [3].
The corresponding values for `COc1nn(-c2ccccc2)c2nc(Nc3ccc(C(=O)O)cc3)ncc12` are 760 nM and 1900 nM.
The like results for `O=C(O)c1ccc(Nc2ncc(-c3ccncc3)c(Nc3ccccc3)n2)cc1` were, in that order, 540 nM and 1870 nM.
Regarding `O=C(O)c1ccc(Nc2ncc3c(Cl)nn(-c4ccccc4)c3n2)cc1`, the IC50 was 180 nM in [2] and 350 nM in [3].
